From ChEMBL document CHEMBL1145783, “Development of an orexin-2 receptor selective agonist, [Ala(11), D-Leu(15)]orexin-B” (Bioorg Med Chem Lett, 2003)
Residues, ends and D or L forms follow the SMILES beside them. *: point of attachment. X1 = C[C@H](NC(=O)N1CCC[C@H]1C(=O)NCC(=O)N[C@@H](CO)C(=O)N[C@@H](CCCN=C(N)N)C(N)=O)C(=O)NC(=O)CN*

How the values were obtained:
[1] = biological target: T1, Orexin/Hypocretin receptor type 1 (Homo sapiens) (UniProt O43613); experiment: Agonist activity against human orexin 1 receptor; EC50; nM; format: functional
T1 sequence (whole entry): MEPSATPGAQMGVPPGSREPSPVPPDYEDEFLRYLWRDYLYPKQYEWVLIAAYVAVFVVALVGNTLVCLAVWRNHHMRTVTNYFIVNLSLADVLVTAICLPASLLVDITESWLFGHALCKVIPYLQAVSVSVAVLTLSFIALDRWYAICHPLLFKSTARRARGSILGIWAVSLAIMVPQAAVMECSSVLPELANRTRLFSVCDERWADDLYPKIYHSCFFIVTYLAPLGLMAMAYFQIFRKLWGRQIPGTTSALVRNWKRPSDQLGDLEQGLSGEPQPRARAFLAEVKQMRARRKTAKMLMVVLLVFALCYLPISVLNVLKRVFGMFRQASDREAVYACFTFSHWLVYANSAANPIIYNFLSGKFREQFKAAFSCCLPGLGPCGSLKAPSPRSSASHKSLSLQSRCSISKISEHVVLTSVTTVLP

[2] = biological target: T2, Orexin receptor type 2 (Homo sapiens) (UniProt O43614); experiment: (§1) Agonist activity against human orexin 2 receptor; EC50; nM; format: functional
T2 sequence (whole entry): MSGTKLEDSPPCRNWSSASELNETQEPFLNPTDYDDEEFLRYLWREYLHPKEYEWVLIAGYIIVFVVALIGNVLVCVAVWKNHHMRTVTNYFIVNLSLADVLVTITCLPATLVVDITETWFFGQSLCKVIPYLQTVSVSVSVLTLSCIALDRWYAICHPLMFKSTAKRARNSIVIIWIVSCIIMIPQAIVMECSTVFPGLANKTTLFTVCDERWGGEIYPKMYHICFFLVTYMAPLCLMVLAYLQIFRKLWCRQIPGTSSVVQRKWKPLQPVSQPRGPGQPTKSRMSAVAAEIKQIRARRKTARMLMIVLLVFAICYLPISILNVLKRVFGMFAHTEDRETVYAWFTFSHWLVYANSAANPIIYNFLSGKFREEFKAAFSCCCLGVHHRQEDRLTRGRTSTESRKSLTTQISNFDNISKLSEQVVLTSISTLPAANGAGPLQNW

Homo sapiens = species on record: Homo sapiens; experiment: (§2) Agonist selectivity for orexin receptor 1 versus orexin receptor 2; format: functional
[3] = as §2; format: functional, Homo sapiens
Orexin receptor type 2 = biological target: T3, Orexin receptor type 2 (Homo sapiens, UniProt O43614); experiment: as §1; format: functional
T3 sequence (O43614 whole entry): T2 sequence (whole entry)

Compound | EC50 [1] [nM] | EC50 [2] [nM] | selectivity (Homo sapiens) | selectivity [3] | EC50 (Orexin receptor type 2) [nM]
CC[C@H](C)[C@H](NC(=O)[C@H](CC(C)C)NC(=O)[C@@H](NC(=O)[C@@H](N)CCSC)[C@@H](C)O)C(=O)NCC(=O)N[C@@H](C)C(=O)N[C@@H](C)C(=O)N[C@@H](Cc1c[nH]cn1)C(=O)N[C@@H](CC(N)=O)C(=O)NCC(=O)N[C@@H](CO)C(=O)N[C@@H](C)C(=O)N[C@@H](CCC(N)=O)C(=O)N[C@@H](CC(C)C)C(=O)N[C@@H](CC(C)C)C(=O)N[C@@H](CCCN=C(N)N)C(=O)N[C@@H](CCC(N)=O)C(=O)N[C@@H](CC(C)C)C(=O)N[C@@H](CCCN=C(N)N)C(=O)NCC(=O)N[C@@H](CCC(N)=O)C(=O)N[C@@H](CC(C)C)C(=O)NCC(=O)N1CCC[C@H]1C(=O)N1CCC[C@H]1C(=O)NCC(=O)N[C@@H](CO)C(=O)N[C@@H](CCCN=C(N)N)C(N)=O [OREXIN B] | 0.83 | 0.081 | 10 | 10 | –
CC[C@H](C)[C@H](NC(=O)[C@H](CC(C)C)NC(=O)[C@@H](NC(=O)[C@@H](N)CCSC)[C@@H](C)O)C(=O)NCC(=O)N[C@@H](C)C(=O)N[C@@H](C)C(=O)N[C@@H](Cc1c[nH]cn1)C(=O)N[C@@H](CC(N)=O)C(=O)NCC(=O)N[C@@H](CO)C(=O)N[C@@H](C)C(=O)N[C@@H](CCC(N)=O)C(=O)N[C@H](CC(C)C)C(=O)N[C@@H](CC(C)C)C(=O)N[C@@H](CCCN=C(N)N)C(=O)N[C@@H](CCC(N)=O)C(=O)N[C@@H](C)C(=O)N[C@@H](CCCN=C(N)N)C(=O)NCC(=O)N[C@@H](CCC(N)=O)C(=O)N[C@@H](CC(C)C)C(=O)NCC(=O)N1CCC[C@H]1C(=O)N1CCC[C@H]1C(=O)NCC(=O)N[C@@H](CO)C(=O)N[C@@H](CCCN=C(N)N)C(N)=O | 52 | 0.13 | 400 | – | –
CC[C@H](C)[C@H](NC(=O)[C@H](CC(C)C)NC(=O)[C@@H](NC(=O)[C@@H](N)CCSC)[C@@H](C)O)C(=O)NCC(=O)N[C@@H](C)C(=O)N[C@@H](C)C(=O)N[C@@H](Cc1c[nH]cn1)C(=O)N[C@@H](CC(N)=O)C(=O)NCC(=O)N[C@@H](CO)C(=O)N[C@@H](C)C(=O)N[C@@H](CCC(N)=O)C(=O)N[C@@H](CC(C)C)C(=O)N[C@H](CC(C)C)C(=O)N[C@@H](CCCN=C(N)N)C(=O)N[C@@H](CCC(N)=O)C(=O)N[C@@H](C)C(=O)N[C@@H](CCCN=C(N)N)C(=O)NCC(=O)N[C@@H](CCC(N)=O)C(=O)N[C@@H](CC(C)C)C(=O)NCC(=O)N1CCC[C@H]1C(=O)N1CCC[C@H]1C(=O)NCC(=O)N[C@@H](CO)C(=O)N[C@@H](CCCN=C(N)N)C(N)=O | 270 | 1.9 | 140 | – | –
CC[C@H](C)[C@H](NC(=O)[C@H](CC(C)C)NC(=O)[C@@H](NC(=O)[C@@H](N)CCSC)[C@@H](C)O)C(=O)NCC(=O)N[C@@H](C)C(=O)N[C@@H](C)C(=O)N[C@@H](Cc1c[nH]cn1)C(=O)N[C@@H](CC(N)=O)C(=O)NCC(=O)N[C@@H](CO)C(=O)N[C@@H](C)C(=O)N[C@@H](CCC(N)=O)C(=O)N[C@@H](CC(C)C)C(=O)N[C@@H](CC(C)C)C(=O)N[C@@H](CCCN=C(N)N)C(=O)N[C@@H](CCC(N)=O)C(=O)N[C@@H](CC(C)C)C(=O)N[C@H](CCCN=C(N)N)C(=O)NCC(=O)N[C@@H](CCC(N)=O)C(=O)N[C@@H](CC(C)C)C(=O)NCC(=O)N1CCC[C@H]1C(=O)N1CCC[C@H]1C(=O)NCC(=O)N[C@@H](CO)C(=O)N[C@@H](CCCN=C(N)N)C(N)=O | – | – | – | – | 0.87
CC[C@H](C)[C@H](NC(=O)[C@H](CC(C)C)NC(=O)[C@@H](NC(=O)[C@@H](N)CCSC)[C@@H](C)O)C(=O)NCC(=O)N[C@@H](C)C(=O)N[C@@H](C)C(=O)N[C@@H](Cc1c[nH]cn1)C(=O)N[C@@H](CC(N)=O)C(=O)NCC(=O)N[C@@H](CO)C(=O)N[C@@H](C)C(=O)N[C@@H](CCC(N)=O)C(=O)N[C@@H](CC(C)C)C(=O)N[C@@H](CC(C)C)C(=O)N[C@@H](CCCN=C(N)N)C(=O)N[C@@H](CCC(N)=O)C(=O)N[C@@H](CC(C)C)C(=O)N[C@@H](CCCN=C(N)N)C(=O)NCC(=O)N[C@@H](CCC(N)=O)C(=O)N[C@@H](CC(C)C)C(=O)NCC(=O)NC(=O)[C@H](C)NC(=O)N1CCC[C@H]1C(=O)NCC(=O)N[C@@H](CO)C(=O)N[C@@H](CCCN=C(N)N)C(N)=O (H-MTLIGAAHNGSAQLLRQLRGQL-X1) | – | – | – | – | 0.29
CC[C@H](C)[C@H](NC(=O)[C@H](CC(C)C)NC(=O)[C@H](NC(=O)[C@@H](N)CCSC)[C@@H](C)O)C(=O)NCC(=O)N[C@@H](C)C(=O)N[C@@H](C)C(=O)N[C@@H](Cc1cnc[nH]1)C(=O)N[C@@H](CC(N)=O)C(=O)NCC(=O)N[C@@H](CO)C(=O)N[C@@H](C)C(=O)N[C@@H](CCC(N)=O)C(=O)N[C@@H](CC(C)C)C(=O)N[C@@H](CC(C)C)C(=O)N[C@@H](CCCN=C(N)N)C(=O)N[C@@H](CCC(N)=O)C(=O)N[C@@H](CC(C)C)C(=O)N[C@@H](CCCN=C(N)N)C(=O)NCC(=O)N[C@@H](CCC(N)=O)C(=O)N[C@@H](CC(C)C)C(=O)NCC(=O)N1CCC[C@H]1C(=O)N1CCC[C@H]1C(=O)NCC(=O)N[C@@H](CO)C(=O)N[C@@H](CCCN=C(N)N)C(N)=O | – | – | – | – | > 260
H-MTLIGAAHNGAAQLLRQLRGQLGPPGSR-NH2 | – | – | – | – | 1.6
H-MTLIGAAHNGSAQLLRQLAGQLGPPGSR-NH2 | – | – | – | – | 0.77
